Holding throughout (type): cell-based
One assay has as its target MC4R (Homo sapiens, UniProt P32245). In words: cAMP assay (β-galactosidase reporter, cAMP Hunter), MC4R. The source says:
(§1) cAMP Accumulation Measurement Via a β-Galactosidase (β-Gal) Reporter System
(§2) A chemiluminescence readout system that uses an enzyme fragment complementation (EFC) system with β-galactosidase (β-Gal) as the functional reporter system was used. This assay system for various melanocortin receptor systems is commercially available (cAMP Hunter GPCR assay system, Discoverx Corp, Fremont, Calif.). This assay utilizes the β-Gal enzyme that is split into two complementary portions; EA for Enzyme Acceptor and ED for Enzyme Donor. In the assay, the ED portion fused to cAMP is made to compete with cAMP generated by cells for binding to a cAMP-specific antibody. The EA is then added to form active β-Gal with any unbound ED-cAMP.
(§3) Briefly, 10000 cells per well are plated overnight and each well (cells incubated with 10 μl assay buffer) is then incubated with 4× serial concentration of the test compound in the cell assay buffer (5 μL) and cAMP antibody reagent (5 μL) for 30 min at 37° C. The cell lysis buffer (20 μL) containing ED-cAMP coupled enzyme fragment and the reporter substrate (Emerald II-Galacton Star, 5:1) is then added and incubated for 60 min at room temperature. Next, 20 μL of EA β-Gal fragment reagent is added.
In general terms: Changes in cAMP serve as a functional read-out for many G protein-coupled receptors.

The target in the next assay is MC5R (Homo sapiens, UniProt P33032). Put plainly: cAMP assay (β-galactosidase reporter, cAMP Hunter), MC5R. The settings on record: for Ratios of EC50 values MC 5/4: EC50(MC5R)/EC50(MC4R).
MC5R, sequence (P33032 whole entry): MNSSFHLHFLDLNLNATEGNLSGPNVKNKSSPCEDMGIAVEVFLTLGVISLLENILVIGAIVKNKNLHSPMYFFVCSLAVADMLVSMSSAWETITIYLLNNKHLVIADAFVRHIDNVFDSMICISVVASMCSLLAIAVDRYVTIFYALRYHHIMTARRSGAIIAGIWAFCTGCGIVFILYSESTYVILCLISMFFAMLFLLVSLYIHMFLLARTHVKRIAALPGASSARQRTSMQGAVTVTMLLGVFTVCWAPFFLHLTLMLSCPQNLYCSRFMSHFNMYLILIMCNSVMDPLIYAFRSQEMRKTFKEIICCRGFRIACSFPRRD
Text: as §1, §2, §3

A further assay has as its target MC3R (Homo sapiens, UniProt P41968). In words: cAMP assay (β-galactosidase reporter, cAMP Hunter), MC3R. The note with it: for Ratios of EC50 values MC ¾: EC50(MC3R)/EC50(MC4R).
Text: as §1, §2, §3

The next assay addresses MC1R (Homo sapiens, UniProt Q01726). Put plainly: cAMP assay (β-galactosidase reporter, cAMP Hunter), MC1R. The note with it: for Ratios of EC50 values MC ¼: EC50(MC1R)/EC50(MC4R).
Text: as §1, §2, §3

The mark [1] stands for this setting: agonist cAMP stimulation, read-out: cAMP Assay (EC-50) MC4R.
Setting [2] is: agonist cAMP stimulation, read-out: cAMP Assay (EC-50) MC5R.
Setting [3] is: agonist cAMP stimulation, in uM, read-out: cAMP Assay (EC-50) MC3R.
[4] abbreviates: agonist cAMP stimulation, read-out: cAMP Assay (EC-50) MC1R.
Setting [5] is: agonist cAMP stimulation, read-out: cAMP Assay (EC-50) MC3R.

Where two headings read alike, the source gives them in different places. Bridge positions count the residues as written; N and C are the ends. Square brackets hold non-standard residues; d marks the D form. Peptide text beside a SMILES is read from it. dPhe(4-F) = N[C@H](Cc1ccc(F)cc1)C(=O)O

MC3R, sequence (P41968 whole entry): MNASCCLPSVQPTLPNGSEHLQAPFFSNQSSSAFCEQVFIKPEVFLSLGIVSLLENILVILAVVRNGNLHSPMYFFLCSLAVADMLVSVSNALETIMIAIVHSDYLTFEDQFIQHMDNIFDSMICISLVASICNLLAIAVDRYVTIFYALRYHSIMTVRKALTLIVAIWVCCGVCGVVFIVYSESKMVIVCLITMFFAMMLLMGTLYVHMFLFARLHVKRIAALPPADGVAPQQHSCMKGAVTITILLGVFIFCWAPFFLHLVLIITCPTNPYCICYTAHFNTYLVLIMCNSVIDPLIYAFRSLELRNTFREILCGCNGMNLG
MC4R, sequence (P32245 whole entry): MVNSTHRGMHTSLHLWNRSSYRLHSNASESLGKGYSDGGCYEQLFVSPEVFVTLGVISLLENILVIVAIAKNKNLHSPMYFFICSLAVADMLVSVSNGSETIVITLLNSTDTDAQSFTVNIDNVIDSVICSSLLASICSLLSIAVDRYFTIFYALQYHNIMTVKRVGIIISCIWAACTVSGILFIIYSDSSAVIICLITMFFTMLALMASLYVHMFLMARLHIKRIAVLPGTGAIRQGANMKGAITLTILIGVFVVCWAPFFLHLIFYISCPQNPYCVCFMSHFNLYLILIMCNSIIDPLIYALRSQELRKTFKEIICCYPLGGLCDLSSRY
MC1R, sequence (Q01726 whole entry): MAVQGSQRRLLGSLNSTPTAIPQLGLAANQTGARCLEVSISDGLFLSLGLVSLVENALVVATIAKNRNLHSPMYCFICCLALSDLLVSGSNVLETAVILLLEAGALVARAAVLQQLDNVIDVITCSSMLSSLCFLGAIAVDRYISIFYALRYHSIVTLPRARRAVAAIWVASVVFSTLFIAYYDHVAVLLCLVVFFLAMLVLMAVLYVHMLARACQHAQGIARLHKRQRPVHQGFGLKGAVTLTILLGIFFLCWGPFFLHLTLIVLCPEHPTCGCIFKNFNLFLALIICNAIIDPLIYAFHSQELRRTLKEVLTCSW

With `CC(=O)N[C@@H](CCC(=O)O)C(=O)N[C@H]1CSSC[C@@H](C(N)=O)NC(=O)[C@H](Cc2c[nH]c3ccccc23)NC(=O)[C@H](CCCNC(=N)N)NC(=O)[C@@H](Cc2ccccc2)NC(=O)[C@H](Cc2c[nH]cn2)NC(=O)[C@H](C)NC1=O` [Compound 22, Ac-Glu-cyclo[Cys-Ala-His-D-Phe-Arg-Trp-Cys]-NH2] (Ac-ECAH[dF]RWC-NH2; disulfide 2-8), the EC50 at MC4R is less than 0.5 nM. At MC5R, the EC50 stood at 1280 nM and the “Ratios of EC50 values MC 5/4” value was greater than 2563. In addition, at MC3R, the EC50 amounted to 0.0099 µM and the “Ratios of EC50 values MC ¾” value is greater than 20. Further, at MC1R, the EC50 is 1.7 nM and the “Ratios of EC50 values MC ¼” value is listed as greater than 3.

Consider `CC(=O)N[C@@H](CCCNC(=N)N)C(=O)N[C@H]1CSSC[C@@H](C(N)=O)NC(=O)[C@H](Cc2c[nH]c3ccccc23)NC(=O)[C@H](CCCNC(=N)N)NC(=O)[C@@H](Cc2ccc(F)cc2)NC(=O)[C@@H]2CCCN2C(=O)[C@@H](C)NC1=O` [Compound 14, Ac-Arg-cyclo[Cys-D-Ala-Pro-D-Phe(p-F)-Arg-Trp-Cys]-NH2] (Ac-RC[dA]P[dPhe(4-F)]RWC-NH2; disulfide 2-8), for which the EC50 at MC4R (setting [1]) was 24 nM; at MC5R (setting [2]) it was 283 nM; on MC3R (setting [3]) it was greater than 10 µM; on MC1R (setting [4]), 169 nM. The “Ratios of EC50 values MC 5/4” value at MC5R is reported as 12. For the same compound, at MC3R, the “Ratios of EC50 values MC ¾” value is on record as greater than 400. Besides, the “Ratios of EC50 values MC ¼” value on MC1R turned out to be 7.

In the case of `CC(=O)N[C@@H](CCCNC(=N)N)C(=O)N[C@H]1CSSC[C@@H](C(N)=O)NC(=O)[C@H](Cc2c[nH]c3ccccc23)NC(=O)[C@H](CCCNC(=N)N)NC(=O)[C@@H](Cc2ccccc2)NC(=O)[C@H](CCCNC(=N)N)NC(=O)[C@@H](C)NC1=O` [Compound 10, Ac-Arg-cyclo[Cys-D-Ala-Arg-D-Phe-Arg-Trp-Cys]-NH2] (Ac-RC[dA]R[dF]RWC-NH2; disulfide 2-8), the EC50 at MC4R (setting [1]) worked out at 2.7 nM; on MC3R (setting [5]), 0.0039 µM; on MC1R (setting [4]), 6.2 nM. Moreover, on MC3R, the “Ratios of EC50 values MC ¾” value is recorded as 1.45. Moreover, the “Ratios of EC50 values MC ¼” value at MC1R was 2.31.

Take `CC(=O)N[C@@H](CCCNC(=N)N)C(=O)N[C@H]1CSSC[C@@H](C(N)=O)NC(=O)[C@H](Cc2c[nH]c3ccccc23)NC(=O)[C@H](CCCNC(=N)N)NC(=O)[C@@H](Cc2ccccc2)NC(=O)[C@H](CC(N)=O)NC(=O)[C@@H](C)NC1=O` [Compound 9, Ac-Arg-cyclo[Cys-D-Ala-Asn-D-Phe-Arg-Trp-Cys]-NH2] (Ac-RC[dA]N[dF]RWC-NH2; disulfide 2-8): the EC50 is 3 nM on MC4R (setting [1]), 1490 nM at MC5R (setting [2]), 0.081 µM at MC3R (setting [5]) and 248 nM on MC1R (setting [4]). The “Ratios of EC50 values MC 5/4” value at MC5R is 530. Also, the “Ratios of EC50 values MC ¾” value on MC3R amounted to 30. For the same compound, on MC1R, the “Ratios of EC50 values MC ¼” value was found to be 90.

As for `CC(=O)N[C@@H](CCCNC(=N)N)C(=O)N[C@H]1CSSC[C@@H](C(N)=O)NC(=O)[C@H](Cc2c[nH]c3ccccc23)NC(=O)[C@H](CCCNC(=N)N)NC(=O)[C@@H](Cc2ccccc2)NC(=O)[C@@H]2CCCN2C(=O)[C@@H](C)NC1=O` [Compound 13, Ac-Arg-cyclo[Cys-D-Ala-Pro-D-Phe-Arg-Trp-Cys]-NH2] (Ac-RC[dA]P[dF]RWC-NH2; disulfide 2-8), the EC50 on MC4R (setting [1]) is 56 nM; at MC5R (setting [2]), 707 nM; on MC3R (setting [3]), greater than 10 µM; on MC1R (setting [4]), 280 nM. Further, the “Ratios of EC50 values MC 5/4” value at MC5R is on record as 13. In addition, the “Ratios of EC50 values MC ¾” value on MC3R is given as greater than 200. Further, the “Ratios of EC50 values MC ¼” value at MC1R is 5.

As for `CC(=O)N[C@@H](CCCNC(=N)N)C(=O)N[C@H]1CSSC[C@@H](C(N)=O)NC(=O)[C@H](Cc2c[nH]c3ccccc23)NC(=O)[C@H](CCCNC(=N)N)NC(=O)[C@@H](Cc2ccccc2)NC(=O)[C@H](Cc2ccc(O)cc2)NC(=O)[C@@H](C)NC1=O` [Compound 11, Ac-Arg-cyclo[Cys-D-Ala-Tyr-D-Phe-Arg-Trp-Cys]-NH2] (Ac-RC[dA]Y[dF]RWC-NH2; disulfide 2-8), the EC50 was 45.1 nM at MC4R (setting [1]), greater than 1 µM on MC3R (setting [5]) and 301 nM on MC1R (setting [4]). The “Ratios of EC50 values MC ¾” value on MC3R is given as greater than 22.2. In addition, the “Ratios of EC50 values MC ¼” value on MC1R amounted to 6.67.

As to `CC(=O)N[C@@H](CCCNC(=N)N)C(=O)N[C@H]1CSSC[C@@H](C(N)=O)NC(=O)[C@H](Cc2c[nH]c3ccccc23)NC(=O)[C@H](CCCNC(=N)N)NC(=O)[C@@H](Cc2ccccc2)NC(=O)[C@H](Cc2c[nH]cn2)NC(=O)[C@@H](CC(C)C)NC1=O` [Compound 1, Ac-Arg-cyclo[Cys-D-Leu-His-D-Phe-Arg-Trp-Cys]-NH2], the EC50 at MC4R (setting [1]) worked out at 0.7 nM; on MC5R (setting [2]), 91 nM; on MC3R (setting [5]) it was 0.00079 µM; on MC1R (setting [4]) it was 0.47 nM. Moreover, the “Ratios of EC50 values MC 5/4” value on MC5R is given as 130. On MC3R, the “Ratios of EC50 values MC ¾” value is recorded as 1.13. In addition, the “Ratios of EC50 values MC ¼” value on MC1R is on record as 0.68.

Regarding `CC[C@@H](C)[C@H]1NC(=O)[C@@H](NC(=O)[C@H](CCCNC(=N)N)NC(C)=O)CSSC[C@@H](C(N)=O)NC(=O)[C@H](Cc2c[nH]c3ccccc23)NC(=O)[C@H](CCCNC(=N)N)NC(=O)[C@@H](Cc2ccccc2)NC(=O)[C@H](Cc2c[nH]cn2)NC1=O` [Compound 2, Ac-Arg-cyclo[Cys-D-Ile-His-D-Phe-Arg-Trp-Cys]-NH2], the EC50 on MC4R (setting [1]) came out at 1 nM; at MC5R (setting [2]), 420 nM; on MC3R (setting [5]) it was 0.00096 µM; at MC1R (setting [4]), 0.69 nM. Moreover, the “Ratios of EC50 values MC 5/4” value at MC5R came out at 420. The “Ratios of EC50 values MC ¾” value on MC3R is 0.96. The “Ratios of EC50 values MC ¼” value at MC1R is 0.69.

`CC(=O)N[C@@H](CCCNC(=N)N)C(=O)N[C@H]1CSSC[C@@H](C(N)=O)NC(=O)[C@H](Cc2c[nH]c3ccccc23)NC(=O)[C@H](CCCNC(=N)N)NC(=O)[C@@H](Cc2ccccc2)NC(=O)[C@H](CCC(N)=O)NC(=O)[C@@H](C)NC1=O` [Compound 8, Ac-Arg-cyclo[Cys-D-Ala-Gln-D-Phe-Arg-Trp-Cys]-NH2] (Ac-RC[dA]Q[dF]RWC-NH2; disulfide 2-8): the EC50 was 1.6 nM on MC4R (setting [1]), 255 nM on MC5R (setting [2]), 0.0086 µM on MC3R (setting [5]) and 71 nM on MC1R (setting [4]). The “Ratios of EC50 values MC 5/4” value on MC5R was found to be 155. For the same compound, at MC3R, the “Ratios of EC50 values MC ¾” value amounted to 5. In addition, on MC1R, the “Ratios of EC50 values MC ¼” value is 40.

With `CC(=O)N[C@@H](CCCNC(=N)N)C(=O)N[C@H]1CSSC[C@@H](C(N)=O)NC(=O)[C@H](Cc2c[nH]c3ccccc23)NC(=O)[C@H](CCCNC(=N)N)NC(=O)[C@@H](Cc2ccccc2)NC(=O)[C@H](Cc2c[nH]cn2)NC(=O)[C@@H](C(C)(C)C)NC1=O` [Compound 3, Ac-Arg-cyclo[Cys-D-Tle-His-D-Phe-Arg-Trp-Cys]-NH2], the EC50 on MC4R (setting [1]) was 0.7 nM; at MC5R (setting [2]), 672 nM; on MC3R (setting [5]) it was 0.0007 µM; at MC1R (setting [4]), 1 nM. Moreover, the “Ratios of EC50 values MC 5/4” value at MC5R is reported as 930. Besides, on MC3R, the “Ratios of EC50 values MC ¾” value was found to be 1. Besides, the “Ratios of EC50 values MC ¼” value at MC1R was 1.

The values are drawn from patent publication US10196425B2, “Peptide compositions” (RHYTHM PHARMACEUTICALS, INC., priority 2013, dated 2019).
